Test results as given in PubChem BioAssay AID330 (DTP/NCI, 2004).
Values joined by “and” are separate entries in the source; they are usually repeats but may differ in a detail not shown here. Equal entries are not always repeated. Inconclusive results and toxic doses are left out. Rule for the calls: active = survival T/C of 150% or more; inactive = T/C below 125% in these data.

System: P388 leukemia ip, CD2F1 mice, survival T/C
Assay: NCI In Vivo Anticancer Drug Screen. Data for tumor model P388 Leukemia (intraperitoneal) in CD2F1 (CDF1) mice
Settings: endpoint: median survival time, higher = longer survival
Procedure, shortened: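 Mice carrying the transplanted tumor received test compound or vehicle. Survival was recorded in each group, and the value is the treated-group measurement divided by that of the vehicle-treated control group.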

[1] = dose: 12.5 mg/kg/injection, schedule: Q01DX005 (ip), vehicle: saline with Tween-80
[2] = dose: 25.0 mg/kg/injection, schedule: Q01DX005 (ip), vehicle: saline with Tween-80
[3] = dose: 50.0 mg/kg/injection, schedule: Q01DX005 (ip), vehicle: saline with Tween-80
[4] = dose: 60.0 mg/kg/injection, schedule: Q01DX005 (ip), vehicle: saline with Tween-80
[5] = dose: 120.0 mg/kg/injection, schedule: Q01DX005 (ip), vehicle: saline with Tween-80
[6] = dose: 240.0 mg/kg/injection, schedule: Q01DX005 (ip), vehicle: saline with Tween-80
[7] = dose: 60.0 mg/kg/injection, schedule: Q01DX005 (ip), vehicle: Klucel (hydroxypropylcellulose) (HPC)
[8] = dose: 120.0 mg/kg/injection, schedule: Q01DX005 (ip), vehicle: Klucel (hydroxypropylcellulose) (HPC)
[9] = dose: 240.0 mg/kg/injection, schedule: Q01DX005 (ip), vehicle: Klucel (hydroxypropylcellulose) (HPC)
[10] = dose: 100.0 mg/kg/injection, schedule: Q01DX005 (ip), vehicle: saline with Tween-80
[11] = dose: 200.0 mg/kg/injection, schedule: Q01DX005 (ip), vehicle: saline with Tween-80
[12] = dose: 50.0 mg/kg/injection, schedule: Q01DX009 (ip), vehicle: saline

Measured: T/C

C1CCC2(CC1)NN=C1CCCCC12 (stereo unspecified)
inactive: dose: 12.5 mg/kg/injection, schedule: Q01DX009 (ip), vehicle: other 101 % of control | dose: 25.0 mg/kg/injection, schedule: Q01DX009 (ip), vehicle: other 110 % of control | dose: 50.0 mg/kg/injection, schedule: Q01DX009 (ip), vehicle: other 104 % of control | dose: 100.0 mg/kg/injection, schedule: Q01DX009 (ip), vehicle: other 106 % of control | dose: 200.0 mg/kg/injection, schedule: Q01DX009 (ip), vehicle: other 116 % of control

COc1ccc(S(=O)(=O)NNS(=O)(=O)c2ccc(OC)c(OC)c2)cc1OC
inactive: [1] 95 % of control | [2] 99 % of control | [3] 94 % of control and 96 % of control

CN(CCN(C)C(=S)SCc1ccccc1)C(=S)SCc1ccccc1
inactive: dose: 6.25 mg/kg/injection, schedule: Q01DX009 (ip), vehicle: Klucel (hydroxypropylcellulose) (HPC) 100 % of control | dose: 12.5 mg/kg/injection, schedule: Q01DX009 (ip), vehicle: Klucel (hydroxypropylcellulose) (HPC) 116 % of control | dose: 25.0 mg/kg/injection, schedule: Q01DX009 (ip), vehicle: Klucel (hydroxypropylcellulose) (HPC) 105 % of control

CC(C)(C#N)OC(=O)Nc1c(Cl)cccc1Cl
inactive: [4] 100 % of control | [5] 98 % of control | [6] 94 % of control

CC(O)(C#Cc1ccccc1)c1nc2ccccc2s1 (stereo unspecified)
inactive: [7] 101 % of control | [8] 101 % of control | [9] 100 % of control

COC(=O)CC1(C(=O)OC)c2sc(-c3ccccc3)c(-c3ccccc3)c2N2CCCC21 (stereo unspecified)
inactive: dose: 11.25 mg/kg/injection, schedule: Q01DX009 (ip), vehicle: Klucel (hydroxypropylcellulose) (HPC) 97 % of control | dose: 22.5 mg/kg/injection, schedule: Q01DX009 (ip), vehicle: Klucel (hydroxypropylcellulose) (HPC) 97 % of control | dose: 45.0 mg/kg/injection, schedule: Q01DX009 (ip), vehicle: Klucel (hydroxypropylcellulose) (HPC) 97 % of control

CC[C@H]1CN2CCc3c([nH]c4ccccc34)[C@@H]2C[C@@H]1/C(=C\OC)C(=O)OC
inactive: [3] 108 % of control | [10] 108 % of control | [11] 108 % of control

N#CCN(CC#N)CC#N
inactive: dose: 1.56 mg/kg/injection, schedule: Q01DX009 (ip), vehicle: saline with Tween-80 104 % of control | dose: 1.56 mg/kg/injection, schedule: Q04DX003 (ip), vehicle: saline with Tween-80 95 % of control | dose: 3.13 mg/kg/injection, schedule: Q01DX009 (ip), vehicle: saline with Tween-80 90 % of control | dose: 3.13 mg/kg/injection, schedule: Q04DX003 (ip), vehicle: saline with Tween-80 90 % of control | dose: 6.25 mg/kg/injection, schedule: Q01DX009 (ip), vehicle: saline with Tween-80 109 % of control | dose: 6.25 mg/kg/injection, schedule: Q04DX003 (ip), vehicle: saline with Tween-80 90 % of control

Fc1ccc(NP(=S)(Nc2ccc(F)cc2F)Nc2ccc(F)cc2F)c(F)c1
inactive: dose: 25.0 mg/kg/injection, schedule: Q04DX002 (ip), vehicle: saline with Tween-80 101 % of control | dose: 50.0 mg/kg/injection, schedule: Q04DX002 (ip), vehicle: saline with Tween-80 104 % of control | dose: 100.0 mg/kg/injection, schedule: Q04DX002 (ip), vehicle: saline with Tween-80 102 % of control and 105 % of control

OC1CC2CCC(C1)N2c1ccccc1 (stereo unspecified)
inactive: dose: 50.0 mg/kg/injection, schedule: Q01DX005 (ip), vehicle: saline 115 % of control | dose: 100.0 mg/kg/injection, schedule: Q01DX005 (ip), vehicle: saline 97 % of control

CCN(CC)C1=C(C)C(C(=O)OC)=C(C(=O)OC)C12c1ccccc1-c1ccccc12
inactive: [7] 92 % of control | [8] 92 % of control | [9] 86 % of control

COc1ccc(N=C(N=C(NC(=O)c2ccccc2)c2ccccc2)c2ccccc2)cc1
inactive: dose: 50.0 mg/kg/injection, schedule: Q01DX009 (ip), vehicle: saline with Tween-80 104 % of control and 95 % of control | dose: 100.0 mg/kg/injection, schedule: Q01DX009 (ip), vehicle: saline with Tween-80 103 % of control and 92 % of control | dose: 200.0 mg/kg/injection, schedule: Q01DX009 (ip), vehicle: saline with Tween-80 100 % of control

SC(Cc1nc2ccccc2[nH]1)c1nc2ccccc2[nH]1 (stereo unspecified)
inactive: dose: 100.0 mg/kg/injection, schedule: Q01DX001 (ip), vehicle: Klucel + Tween-80 93 % of control | dose: 200.0 mg/kg/injection, schedule: Q01DX001 (ip), vehicle: Klucel + Tween-80 93 % of control | dose: 400.0 mg/kg/injection, schedule: Q01DX001 (ip), vehicle: Klucel + Tween-80 100 % of control

CCCCCN(CCCCC)CC(O)c1c(Cl)ccc2ccccc12 (stereo unspecified)
inactive: [1] 106 % of control | [2] 103 % of control | [3] 103 % of control and 97 % of control | [10] 106 % of control | [11] 112 % of control

COC(=N)N(C)/N=C/c1ccccc1
inactive: dose: 100.0 mg/kg/injection, schedule: Q01DX001 (ip), vehicle: Klucel (hydroxypropylcellulose) (HPC) 114 % of control | dose: 200.0 mg/kg/injection, schedule: Q01DX001 (ip), vehicle: Klucel (hydroxypropylcellulose) (HPC) 115 % of control

CC1(C)CC2(CC3(C1)S(=O)(=O)CCS3(=O)=O)S(=O)(=O)CCS2(=O)=O
inactive: dose: 6.25 mg/kg/injection, schedule: Q01DX009 (ip), vehicle: saline 103 % of control | dose: 12.5 mg/kg/injection, schedule: Q01DX009 (ip), vehicle: saline 100 % of control | dose: 25.0 mg/kg/injection, schedule: Q01DX009 (ip), vehicle: saline 116 % of control | [12] 100 % of control

CCOC(=O)C(Cc1ccc(O)cc1)NC(=O)C(CCCCN)N(C(=O)OCc1ccccc1)C(=O)OCc1ccccc1 (stereo unspecified)
inactive: [3] 96 % of control | [10] 94 % of control | [11] 92 % of control

CC(=O)/C=C/c1ccc([N+](=O)[O-])cc1
inactive: dose: 50.0 mg/kg/injection, schedule: Q01DX009 (ip), vehicle: Klucel (hydroxypropylcellulose) (HPC) 100 % of control | dose: 100.0 mg/kg/injection, schedule: Q01DX009 (ip), vehicle: Klucel (hydroxypropylcellulose) (HPC) 90 % of control | dose: 100.0 mg/kg/injection, schedule: Q04DX003 (ip), vehicle: Klucel (hydroxypropylcellulose) (HPC) 91 % of control | dose: 200.0 mg/kg/injection, schedule: Q01DX009 (ip), vehicle: Klucel (hydroxypropylcellulose) (HPC) 98 % of control | dose: 200.0 mg/kg/injection, schedule: Q04DX003 (ip), vehicle: Klucel (hydroxypropylcellulose) (HPC) 89 % of control | dose: 400.0 mg/kg/injection, schedule: Q04DX003 (ip), vehicle: Klucel (hydroxypropylcellulose) (HPC) 97 % of control

CSc1nc(-c2ccccc2)c(C(=O)NC(C)CN2CCCCC2)s1 (stereo unspecified)
inactive: [4] 95 % of control | [5] 100 % of control

O=C(/C=C1\Nc2ccccc2N(C(=O)c2ccccc2)C1c1ccccc1)c1ccccc1 (stereo unspecified)
inactive: dose: 7.5 mg/kg/injection, schedule: Q01DX005 (ip), vehicle: Klucel (hydroxypropylcellulose) (HPC) 103 % of control | dose: 15.0 mg/kg/injection, schedule: Q01DX005 (ip), vehicle: Klucel (hydroxypropylcellulose) (HPC) 88 % of control | dose: 30.0 mg/kg/injection, schedule: Q01DX005 (ip), vehicle: Klucel (hydroxypropylcellulose) (HPC) 88 % of control and 91 % of control | [8] 88 % of control

C=C1C(C2(C)C=CC(=O)OC3(C)COC(=O)CC32)C(OC=O)C(OC(=O)C(O)C(C)CC)C2(C)C(c3ccoc3)CC(OC(C)=O)C12O (stereo unspecified)
inactive: dose: 5.0 mg/kg/injection, schedule: Q01DX005 (ip), vehicle: Klucel (hydroxypropylcellulose) (HPC) 96 % of control | dose: 10.0 mg/kg/injection, schedule: Q01DX005 (ip), vehicle: Klucel (hydroxypropylcellulose) (HPC) 98 % of control and 96 % of control | dose: 20.0 mg/kg/injection, schedule: Q01DX005 (ip), vehicle: Klucel (hydroxypropylcellulose) (HPC) 91 % of control and 95 % of control | dose: 40.0 mg/kg/injection, schedule: Q01DX005 (ip), vehicle: Klucel (hydroxypropylcellulose) (HPC) 95 % of control and 96 % of control | dose: 80.0 mg/kg/injection, schedule: Q01DX005 (ip), vehicle: Klucel (hydroxypropylcellulose) (HPC) 102 % of control | dose: 160.0 mg/kg/injection, schedule: Q01DX005 (ip), vehicle: Klucel (hydroxypropylcellulose) (HPC) 87 % of control

Cc1ccc(C)n1-c1ccc(OCC(N)=O)cc1
inactive: [4] 104 % of control | [5] 97 % of control | [6] 90 % of control

C=CCN1CCN(c2ccncc2S(=O)(=O)N2CCN(C)CC2)CC1
inactive: [12] 105 % of control | dose: 100.0 mg/kg/injection, schedule: Q01DX009 (ip), vehicle: saline 99 % of control | dose: 200.0 mg/kg/injection, schedule: Q01DX009 (ip), vehicle: saline 97 % of control
